# Assay results reported in patent publication US8247211B2, “Glycopeptide antibiotics” (American Cyanamid Company, priority 2001, dated 2012).
# Columns and labels:
# Experiment in all cases: In vitro antibacterial evaluation: minimum inhibitory concentration (MIC), broth dilution method
# Type in all cases: cell-based
# [1] = test system: Streptococcus sp.; conditions: broth dilution, 18 hours at 35° C.
# How it was run: (§1)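 Broth dilution per NCCLS M7-A2 in Muller-Hinton II […], inoculum 5×10^5 CFU/mL, antibiotic tested over 64-0.06 μg/mL. MIC is taken as the lowest concentration that inhibits growth. Panel includes recent clinical isolates resistant to methicillin, penicillin and/or vancomycin.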
# [2] = test system: Enterococcus sp.; conditions: broth dilution, 18 hours at 35° C.
# How it was run: as §1
# [3] = test system: Staphylococcus sp.; conditions: strain SMITH GC 4543; broth dilution, 18 hours at 35° C.
# How it was run: as §1
# [4] = test system: Escherichia coli; conditions: broth dilution, 18 hours at 35° C.
# [5] = Streptococcus agalactiae (GC 4564)
# [6] = Streptococcus pneumoniae (ATCC 6301)
# [7] = Streptococcus pneumoniae (GC 1894)
# [8] = Streptococcus pneumoniae (GC 4565)
# [9] = Streptococcus pyogenes (GC 4563)
# [10] = Enterococcus faecalis (ATCC 29212)
# [11] = Enterococcus faecalis (GC 2242)
# [12] = Enterococcus faecalis (GC 2691)
# [13] = Enterococcus faecalis (GC 3059)
# [14] = Enterococcus faecalis (GC 4552)
# [15] = Enterococcus faecalis (GC 4553)
# [16] = Enterococcus faecalis (GC 4554)
# [17] = Enterococcus faecalis (GC 6189)
"MIC Streptococcus agalactiae (GC 4564) [1, 5]","MIC Streptococcus pneumoniae (ATCC 6301) [1, 6]","MIC Streptococcus pneumoniae (GC 1894) [1, 7]","MIC Streptococcus pneumoniae (GC 4565) [1, 8]","MIC Streptococcus pyogenes (GC 4563) [1, 9]",MIC Streptococcus agalactiae (GC 4564) [1],MIC Streptococcus pneumoniae (ATCC 6301) [1],MIC Streptococcus pneumoniae (GC 1894) [1],MIC Streptococcus pneumoniae (GC 4565) [1],MIC Streptococcus pyogenes (GC 4563) [1],MIC Enterococcus avium (GC 4558) ([2]; Enterococcus avium (GC 4558)),"MIC Enterococcus faecalis (ATCC 29212) [2, 10]","MIC Enterococcus faecalis (GC 2242) [2, 11]","MIC Enterococcus faecalis (GC 2691) [2, 12]","MIC Enterococcus faecalis (GC 3059) [2, 13]","MIC Enterococcus faecalis (GC 4552) [2, 14]","MIC Enterococcus faecalis (GC 4553) [2, 15]","MIC Enterococcus faecalis (GC 4554) [2, 16]","MIC Enterococcus faecalis (GC 6189) [2, 17]",MIC Enterococcus faecium (GC 2243) ([2]; Enterococcus faecium (GC 2243)),Structure (SMILES),further results
>64 µg/mL,>64 µg/mL,64 µg/mL,>64 µg/mL,64 µg/mL,>64 µg/mL,>64 µg/mL,64 µg/mL,>64 µg/mL,64 µg/mL,64 µg/mL,64 µg/mL,64 µg/mL,>64 µg/mL,>64 µg/mL,>64 µg/mL,32 µg/mL,>64 µg/mL,>64 µg/mL,64 µg/mL,"CC(c1ccccc1)C1NC(=O)CNC(=O)C(CO)NC(=O)C(C(O)C2CNC(=N)N2C2OC(CO)C(O)C(O)C2O)NC(=O)C(C(O)C2CNC(=N)N2)NC(=O)C(Cc2ccc(O)c(NC(=S)Nc3cc(C(F)(F)F)cc(C(F)(F)F)c3)c2)NC1=O (stereo not drawn) [Example 24, Cyclo[glycyl-β-methylphenylalanyl-3-[[[3,5-bis(trifluoromethyl)phenyl]carbamothioyl]amino]-tyrosyl-3-(2-iminoimidazolidin-4-yl)seryl-3-(3-hexopyranosyl-2-iminoimidazolidin-4-yl)-serylseryl]]",MIC Enterococcus faecium (GC 4556) ([2]; Enterococcus faecium (GC 4556)): 64 µg/mL; MIC Enterococcus faecium (GC 4557) ([2]; Enterococcus faecium (GC 4557)): 32 µg/mL; MIC Enterococcus avium (GC 4558) [2]: 64 µg/mL; MIC Enterococcus faecalis (ATCC 29212) [2]: 64 µg/mL; MIC Enterococcus faecalis (GC 2242) [2]: 64 µg/mL; MIC Enterococcus faecalis (GC 2691) [2]: >64 µg/mL; MIC Enterococcus faecalis (GC 3059) [2]: >64 µg/mL; MIC Enterococcus faecalis (GC 4552) [2]: >64 µg/mL; MIC Enterococcus faecalis (GC 4553) [2]: 32 µg/mL; MIC Enterococcus faecalis (GC 4554) [2]: >64 µg/mL; MIC Enterococcus faecalis (GC 6189) [2]: >64 µg/mL; MIC Enterococcus faecium (GC 2243) [2]: 64 µg/mL; MIC Enterococcus faecium (GC 4556) [2]: 64 µg/mL; MIC Enterococcus faecium (GC 4557) [2]: 32 µg/mL; MIC Staphylococcus aureus-SMITH (GC 4543) [3]: >64 µg/mL; MIC Escherichia coli (ATCC 25922) [4]: >64 µg/mL; MIC Escherichia coli (GC 4559) [4]: >64 µg/mL; MIC Escherichia coli (GC 4560) [4]: 32 µg/mL
16 µg/mL,32 µg/mL,16 µg/mL,32 µg/mL,8 µg/mL,16 µg/mL,32 µg/mL,16 µg/mL,32 µg/mL,8 µg/mL,32 µg/mL,32 µg/mL,64 µg/mL,32 µg/mL,64 µg/mL,64 µg/mL,32 µg/mL,64 µg/mL,32 µg/mL,32 µg/mL,"CC(c1ccccc1)C1NC(=O)CNC(=O)C(CO)NC(=O)C(C(O)C2CNC(=N)N2C2OC(CO)C(O)C(O)C2O)NC(=O)C(C(O)C2CNC(=N)N2)NC(=O)C(Cc2ccc3oc(-c4cccc([N+](=O)[O-])c4)nc3c2)NC1=O (stereo not drawn) [Example 26, Cyclo[3-[2-(3-nitrophenyl)-1,3-benzoxazol-5-yl)alanyl-3-(2-iminoimidazolidin-4-yl)seryl-3-(3-hexopyranosyl-2-iminoimidazolidin-4-yl)serylserylglycyl-β-methylphenylalanyl]]",MIC Enterococcus faecium (GC 4556) ([2]; Enterococcus faecium (GC 4556)): 64 µg/mL; MIC Enterococcus faecium (GC 4557) ([2]; Enterococcus faecium (GC 4557)): 8 µg/mL; MIC Enterococcus avium (GC 4558) [2]: 32 µg/mL; MIC Enterococcus faecalis (ATCC 29212) [2]: 32 µg/mL; MIC Enterococcus faecalis (GC 2242) [2]: 64 µg/mL; MIC Enterococcus faecalis (GC 2691) [2]: 32 µg/mL; MIC Enterococcus faecalis (GC 3059) [2]: 64 µg/mL; MIC Enterococcus faecalis (GC 4552) [2]: 64 µg/mL; MIC Enterococcus faecalis (GC 4553) [2]: 32 µg/mL; MIC Enterococcus faecalis (GC 4554) [2]: 64 µg/mL; MIC Enterococcus faecalis (GC 6189) [2]: 32 µg/mL; MIC Enterococcus faecium (GC 2243) [2]: 32 µg/mL; MIC Enterococcus faecium (GC 4556) [2]: 64 µg/mL; MIC Enterococcus faecium (GC 4557) [2]: 8 µg/mL; MIC Staphylococcus aureus-SMITH (GC 4543) [3]: 16 µg/mL; MIC Escherichia coli (ATCC 25922) [4]: 64 µg/mL; MIC Escherichia coli (GC 4559) [4]: 64 µg/mL; MIC Escherichia coli (GC 4560) [4]: 16 µg/mL
32 µg/mL,16 µg/mL,32 µg/mL,16 µg/mL,8 µg/mL,32 µg/mL,16 µg/mL,32 µg/mL,16 µg/mL,8 µg/mL,16 µg/mL,32 µg/mL,32 µg/mL,32 µg/mL,32 µg/mL,64 µg/mL,16 µg/mL,32 µg/mL,32 µg/mL,32 µg/mL,"CC(c1ccccc1)C1NC(=O)CNC(=O)C(CO)NC(=O)C(C(O)C2CNC(=N)N2C2OC(CO)C(O)C(O)C2O)NC(=O)C(C(O)C2CNC(=N)N2)NC(=O)C(Cc2ccc3oc(-c4ccc(Br)cc4)nc3c2)NC1=O (stereo not drawn) [Example 27, Cyclo[3-[2-(4-bromaphenyl)-1,3-benzoxazol-5-yl]alanyl-3-(2-iminoimidazolidin-4-yl)seryl-3-(3-hexopyranosyl-2-iminoimidazolidin-4-yl)serylserylglycyl-β-methylphenylalanyl]]",MIC Enterococcus faecium (GC 4556) ([2]; Enterococcus faecium (GC 4556)): 64 µg/mL; MIC Enterococcus faecium (GC 4557) ([2]; Enterococcus faecium (GC 4557)): 8 µg/mL; MIC Enterococcus avium (GC 4558) [2]: 16 µg/mL; MIC Enterococcus faecalis (ATCC 29212) [2]: 32 µg/mL; MIC Enterococcus faecalis (GC 2242) [2]: 32 µg/mL; MIC Enterococcus faecalis (GC 2691) [2]: 32 µg/mL; MIC Enterococcus faecalis (GC 3059) [2]: 32 µg/mL; MIC Enterococcus faecalis (GC 4552) [2]: 64 µg/mL; MIC Enterococcus faecalis (GC 4553) [2]: 16 µg/mL; MIC Enterococcus faecalis (GC 4554) [2]: 32 µg/mL; MIC Enterococcus faecalis (GC 6189) [2]: 32 µg/mL; MIC Enterococcus faecium (GC 2243) [2]: 32 µg/mL; MIC Enterococcus faecium (GC 4556) [2]: 64 µg/mL; MIC Enterococcus faecium (GC 4557) [2]: 8 µg/mL; MIC Staphylococcus aureus-SMITH (GC 4543) [3]: 8 µg/mL; MIC Escherichia coli (ATCC 25922) [4]: 32 µg/mL; MIC Escherichia coli (GC 4559) [4]: 32 µg/mL; MIC Escherichia coli (GC 4560) [4]: 8 µg/mL
32 µg/mL,32 µg/mL,32 µg/mL,32 µg/mL,16 µg/mL,32 µg/mL,32 µg/mL,32 µg/mL,32 µg/mL,16 µg/mL,16 µg/mL,32 µg/mL,32 µg/mL,32 µg/mL,64 µg/mL,64 µg/mL,16 µg/mL,32 µg/mL,32 µg/mL,16 µg/mL,"CC(c1ccccc1)C1NC(=O)CNC(=O)C(CO)NC(=O)C(C(O)C2CNC(=N)N2C2OC(CO)C(O)C(O)C2O)NC(=O)C(C(O)C2CNC(=N)N2)NC(=O)C(Cc2ccc3oc(-c4ccc(N(C)C)cc4)nc3c2)NC1=O (stereo not drawn) [Example 29, Cyclo[3-[2-[4-(dimethylamino)phenyl]-1,3-benzoxazol-5-yl]alanyl-3-(2-iminoimidazolidin-4-yl)-seryl-3-(3-hexopyranosyl-2-iminoimidazolidin-4-yl)serylserylglycyl-β-methylphenyl-alanyl]]",MIC Enterococcus faecium (GC 4556) ([2]; Enterococcus faecium (GC 4556)): 64 µg/mL; MIC Enterococcus faecium (GC 4557) ([2]; Enterococcus faecium (GC 4557)): 8 µg/mL; MIC Enterococcus avium (GC 4558) [2]: 16 µg/mL; MIC Enterococcus faecalis (ATCC 29212) [2]: 32 µg/mL; MIC Enterococcus faecalis (GC 2242) [2]: 32 µg/mL; MIC Enterococcus faecalis (GC 2691) [2]: 32 µg/mL; MIC Enterococcus faecalis (GC 3059) [2]: 64 µg/mL; MIC Enterococcus faecalis (GC 4552) [2]: 64 µg/mL; MIC Enterococcus faecalis (GC 4553) [2]: 16 µg/mL; MIC Enterococcus faecalis (GC 4554) [2]: 32 µg/mL; MIC Enterococcus faecalis (GC 6189) [2]: 32 µg/mL; MIC Enterococcus faecium (GC 2243) [2]: 16 µg/mL; MIC Enterococcus faecium (GC 4556) [2]: 64 µg/mL; MIC Enterococcus faecium (GC 4557) [2]: 8 µg/mL; MIC Staphylococcus aureus-SMITH (GC 4543) [3]: 8 µg/mL; MIC Escherichia coli (ATCC 25922) [4]: 16 µg/mL; MIC Escherichia coli (GC 4559) [4]: 16 µg/mL; MIC Escherichia coli (GC 4560) [4]: 4 µg/mL
